Reference: US8551711B2, “Screening method of glutathione-increasing substance” (Teikyo University, priority 2006, dated 2013)

Columns and labels:
[1] = test system: EAAC1; assay: Western blot of EAAC1 amount in HEK293 cell; type: cell-based; conditions: ratio to actin, oligonucleotide introduced or 250 μM MeβCD
Procedure: (§1) FIG. 1 Results obtained by examining influences of a GTRAP3-18 antisense oligonucleotide and methyl-β-cyclodextrin (MeβCD) against the expression of a GTRAP3-18 protein of an HEK293 cell. A GTRAP3-18 sense oligonucleotide (GTRAP3-18(S)) or an antisense oligonucleotide (GTRAP3-18(As)) was introduced into an HEK293 cell, or 250 μM of methyl-β-cyclodextrin (MeβCD) was made to act thereon. A) After homogenizing the cell, western blot was performed using an anti-EAAC1 antibody, an anti-GTRAP3-18 antibody and an anti-actin antibody. B) The results of the western blot were digitalized and indicated in terms of a ratio to actin. GTRAP3-18 decreased by the introduction of the GTRAP3-18 antisense oligonucleotide, and GTRAP3-18 increased by MeβCD.

[2] = test system: EAAC1 protein; assay: Western blot of EAAC1 protein in mouse hippocampus after intraventricular administration; type: in vivo; conditions: administered in cerebral ventricle, vs control (buffer)
Procedure: (§2) FIG. 4 Results obtained by examining influences of EAAC1 siRNA against the expression of an EAAC1 protein of a mouse hippocampus cell. A) After homogenizing the cell, western blot was performed using an anti-EAAC1 antibody. B) The results of the western blot were digitalized and indicated in terms of a ratio to the buffer administration. The amount of EAAC1 decreased by the introduction of EAAC1 siRNA.
(§3) FIG. 6 Results obtained by examining influences of methyl-β-cyclodextrin (MeβCD) against the expression of a GTRAP3-18 protein of mouse hippocampus. A) After homogenizing the cell, western blot was performed using an anti-EAAC1 antibody, an anti-GTRAP3-18 antibody and an anti-actin antibody. B) The results of the western blot were digitalized and indicated in terms of a ratio to actin. GTRAP3-18 increased by MeβCD.
(§4) siRNA against GTRAP3-18 was administered (10 μg/h) in a cerebral ventricle of a mouse.

[3] = test system: GTRAP3-18 protein; assay: Western blot of GTRAP3-18 protein expression in HEK293 cell; type: cell-based; conditions: ratio to actin, oligonucleotide transiently introduced or 250 μM MeβCD, vs control (sense oligonucleotide)
Procedure: as §1
(§5) By transiently introducing an antisense oligonucleotide of GTRAP3-18 into an HEK293 cell, the amount of GTRAP3-18 in the cell was decreased (FIG. 1). Next, the amount of intracellular glutathione was assayed by ThioGlo-1 (manufactured by Calbiochem). […] of the amount of GTRAP3-18 was confirmed by a western blot method. A cell into which a sense oligonucleotide had been introduced was used as a control group.
On the other hand, it was confirmed by a western blot method that when methyl-β-cyclodextrin (MeβCD) was added to HEK293 cell, the amount of GTRAP3-18 increased as compared with the control group (FIG. 1).

[4] = test system: intracellular glutathione (GSH); assay: Amount of intracellular glutathione in HEK293 cell assayed by ThioGlo-1; type: cell-based; conditions: conditions of FIG. 1, vs control group
Procedure: FIG. 2 The amount of intracellular glutathione (GSH) was quantitatively determined under the conditions of FIG. 1. Glutathione increased by the introduction of the GTRAP3-18 antisense oligonucleotide, and glutathione decreased by MeβCD.
as §5

[5] = test system: glutathione in hippocampus; assay: Amount of glutathione in mouse hippocampus (GSH reductase/DTNB, absorbance at 412 nm); type: in vivo; conditions: administered in cerebral ventricle, corrected by tissue weight, vs control
Text: FIG. 5 Results obtained by quantitatively determining the amount of glutathione in hippocampus under the conditions of FIGS. 3 and 4. The amount of glutathione of hippocampus decreased by the intraventricular administration of EAAC1 siRNA, whereas the amount of glutathione increased by GTRAP3-18 siRNA.
FIG. 7 The amount of intracellular glutathione (GSH) was quantitatively determined under the conditions of FIG. 6. Glutathione decreased by MeβCD.
Next, after decreasing the amount of GTRAP3-18 or EAAC1 in the hippocampus cell, the amount of glutathione was assayed. That is, an extract from the hippocampus tissue was mixed with a reaction solution containing EDTA (ethylenediaminetetraacetic acid), GSH reductase, DTNB (5,5′-ditiobis-nitrobenzoic acid) and NADPH, and an absorbance at 412 nm was measured. After determining a concentration by using an absorbance of a GSH standard solution, it was corrected by a tissue weight.

[6] = test system: GTRAP3-18 protein; assay: Western blot of GTRAP3-18 protein in mouse hippocampus after intraventricular administration; type: in vivo; conditions: administered in cerebral ventricle (siRNA 10 μg/h, after one week), vs control (buffer)
Procedure: as §2, with “3” for “4”, “GTRAP3-18” for “EAAC1”, “a GTRAP3-18” for “an EAAC1”, “anti-GTRAP3-18” for “anti-EAAC1”
as §3, §4
On the other hand, when methyl-β-cyclodextrin (MeβCD) was administered in a cerebral ventricle of a mouse, the amount of GTRAP3-18 in the hippocampus cell increased as compared with the control group (FIG. 6).

[7] = listed as methyl-β-cyclodextrin (MeβCD)

Substance: methyl-β-cyclodextrin [MeβCD]
- amount of EAAC1 [1]: did not change
- amount of EAAC1 in hippocampus cell [2]: did not change
- amount of GTRAP3-18 in the cell [3]: increased
- amount of intracellular glutathione (GSH) [4]: decreased
- amount of intracellular glutathione (GSH) [4, 7]: significantly decreased
- amount of glutathione in hippocampus [5]: decreased
- amount of glutathione in hippocampus [5, 7]: significantly decreased
- amount of GTRAP3-18 in hippocampus cell [6]: increased
